Experimental data published in ChEMBL document CHEMBL1124290, “6- and 8-hydroxy-3,4-dihydro-3-(dipropylamino)-2H-1-benzopyrans. Dopamine agonists with autoreceptor selectivity” (J Med Chem, 1988).

What was measured:
Mus musculus [1] = experiment: Dose required for inhibition of locomotor activity in mice (sc)
[2] = Ratio of ED50 values for the inhibition of locomotor activity to reversal of reserpine-induced depression; assay type: functional
Mus musculus [3] = experiment: Dose required for reversal of reserpine-induced depression in mice (sc)
Rattus norvegicus = experiment: Dose (ip) giving half-maximal reversal of the gamma-butyrolactone-induced increase in DOPA formation of rat striatum; assay type: functional

Which ED50 (Mus musculus [1]) does the source give for CCCN(CCC)C1COc2ccc(O)cc2C1 (stereo unspecified) here?
The ED50 was 0.17 mg/kg.

What about the Ratio [2] of the same molecule?
The Ratio was 79.

And the ED50 (Mus musculus [3])?
Its ED50 is 13.4 mg/kg.

What about the ED50 (Rattus norvegicus) of the same molecule?
Its ED50 is 0.85 mg/kg.

For CN1CCc2cccc3c2[C@H]1Cc1ccc(O)c(O)c1-3 [APOMORPHINE], which ED50 (Mus musculus [1]) is on record?
The ED50 was 0.021 mg/kg.

What about the ED50 (Mus musculus [3]) of the same molecule?
Its ED50 is 0.096 mg/kg.

And the ED50 (Rattus norvegicus)?
The ED50 was 0.04 mg/kg.

With CCCN(CCC)C1COc2c(O)cccc2C1 (stereo unspecified) as the molecule, how does the ED50 (Mus musculus [1]) read?
The ED50 was 0.013 mg/kg.

What about the Ratio [2] of the same molecule?
The Ratio was 304.

What about the ED50 (Mus musculus [3]) of the same molecule?
Its ED50 is 3.95 mg/kg.

And the ED50 (Rattus norvegicus)?
The ED50 was 0.05 mg/kg.
